Experimental data as given in article PMC8750417, “Intracellular Amplifiers of Reactive Oxygen Species Affecting Mitochondria as Radiosensitizers” (Cancers, 2021).

Key:
[1] = tested on: chronic lymphocytic leukemia (CLL) cells; test: Viability of primary CLL cells (CellTiter Glo); assay type: cell-based, human; conditions: viability of CLL vs MNC, 48 h; for 2c at 3.3 and 10 µM
Excerpt: Determination of viability of primary cancer (CLL) and normal (MNC) cells in the […]
Clinical samples from chronic lymphocytic leukemia (CLL) patients (N=6, CLL cells) and healthy donors (N=6; peripheral blood mononuclear cells, MNCs) were collected at the University Hospital Heidelberg, Germany. Informed consent was obtained in accordance with the Declaration of Helsinki. Sample collection and analysis was approved by the ethics committee of the University of Heidelberg (S-254/2016). Blood was separated by a Ficoll gradient (GE Healthcarey), and cells were cryopreserved. Drug sensitivity screening was performed in 384-well format (Greiner Bio One) with 10 different prodrug […]
4x10^4 cells per well. Cells were cultured in RPMI-1640 (Invitrogen) supplemented with penicillin/streptomycin (Invitrogen), L-glutamine (Invitrogen) and 10% pooled and heat inactivated AB-type human serum (Sigma-Aldrich). Cell viability was assessed by quantification of ATP (CellTiter Glo®, Promega) 48 hours after drug application.
Luminescence was measured on a Tecan Infinite F200 Microplate Reader. Viability was calculated as % of solvent (DMSO) treated control. Representative plots of cell viability

[2] = n-octanol/water partition coefficient (logP) by RP-TLC; assay type: physicochemical; conditions: for logP (Hydrolyzed Prodrug): n-octanol/water partition coefficient of the hydrolyzed boronic acid (_BA) form of the prodrug named; for logP (Prodrug): n-octanol/water partition coefficient of the intact prodrug (or control 2c_c), RP-TLC, MOPS pH 7.4
Procedure: Determination of n-octanol/water partition coefficients (LogP) […]
mixture of dichloromethane/CH3OH at proper concentrations. Commercially available […]
7.4) (6/4, v/v) was used. The solvent migration distance was around 4.5 cm. The plates […]
and its distance was manually measured. All measurements were done in at least triplicate and average values were used in further calculations. All experiments were performed at ambient temperature (22 ± 2 °C). […]

[3] = Prodrug-induced generation of ROS in cell free settings (DCFH/H2O2); conditions: for ROS Release Efficacy: relative acceleration of the rate of DCFH fluorescence increase with H2O2, pH 7.4, FeSO4 = 1.0
Excerpt: As previously reported, the NAAF-prodrugs react with ROS like H2O2, first leading to the cleavage of the B-C-bond with the formation of the phenol derivatives (product 2c-1, Figure S49, SI). The latter compounds exist in equilibrium with the corresponding phenolates. The phenolates undergo the spontaneous 1,6-elimination of para-quinone methide (QM) followed by the release of CO2 with the formation of the N-alkylaminoferrocene NAAF drugs (product 2c-2, Figure S46, SI). By using electrospray ionization mass spectrometry (ESI–MS), we confirmed for one representative prodrug 2c that it reacts with H2O2 in cell free settings according to this common mechanism (ESI-MS, Figures S46–S48, SI). The NAAF is further oxidized by H2O2 or molecular oxygen with the generation of drug NAAF^+ and highly toxic HO• or/and O2^•−. Finally, the NAAF^+ is reduced by glutathione (GSH), thereby closing the catalytic cycle, in which the NAAF acts as a catalyst. We evaluated the formation of HO• or/and O2^•− by using 2′,7′-dichlorodihydrofluorescein (DCFH) as a probe (Table 1, Figure S49, SI). This probe is oxidized to the fluorescent product 2′,7′-dichlorofluorescein (DCF) in the presence of HO• or/and O2^•−. […] The lower activity of 2c and 2d correlates with their higher lipophilicity and their correspondingly higher propensity to form aggregates in aqueous solution (Figure S45, SI).
Prodrug-induced generation of ROS in cell free settings
2',7'-Dichlorodihydrofluorescein diacetate (DCFH-DA, 4.9 mg) was dissolved in DMF (100 μL) and mixed with aqueous NaOH (0.1 M, 900 μL). The resulting mixture was incubated for 30 min at 22 °C in the dark to obtain a stock solution of 2',7'-dichlorodihydrofluorescein (DCFH, 10 mM). Next, DCFH (1 µL ) was added to the solution containing MOPS buf fer (100 mM, pH 7.4), N,N,N'N' -e thylenediaminetetraacetic acid (EDTA , 10 mM) and glutathione (GSH , 5 mM) (1 mL, final concentration of DCFH 10 μM). The reaction mixture was heated to 37 °C and H2O2 (1 µL, final concentration 10 mM) was added. The reaction was monitored by fluorescence spectroscopy: λex = 501 nm, λem = 523 nm. After around 5 min, prodrugs (1 mM in DMF, 10 μL) or positive control FeSO4 (1 mM in water, 10 μL) were added, and the fluorescence monitoring was continued until the fluorescence signal growth was stalled after approximately 100 to 300 min. A representative kinetics of ROS […]
The data are presented in Table 1 as relative acceleration of the rate of the fluorescence increase, where the rate of the fluorescence increase obtained in the presence of positive control FeSO4 was set […]
y = a time + b (a = (dF/dt) , min-1)
Figure S49. Increase of the fluorescence intensity (λex = 501 nm, λem = 523 nm) upon oxidation of DCFH by H2O2 in the presence of FeSO4. Experimental details are provided in the description above. The time point of the FeSO4 addition is indicated with a black […]
(also on this page, place not known: ° C µL) buffer N,N,N'N'-ethylenediaminetetraacetic (EDTA, (GSH, ° C FeSO 4 (λ ex λ em Fluorescence (a.u.) (dF/dt)0, min -1 Addition of)
(1 picture or pasted object on this page, not shown here)

A2780 cells [4] = test: Cell viability, MTT assay, A2780; assay type: cell-based, human
Procedure: Determination of viability of cells in the presence of prodrugs and controls A2780 and BL-2 cells The medium was removed, and the cells were washed two times with DPBS, trypsinated, and resuspended in RPMI 1640 medium (A2780) supplemented with 5% FBS (for 24 h and 48 h assay) or 10% FBS (for 96 h assay) , 1% L-glutamine, and 1% penicillin/streptomycin.
A2780 cells: This suspension was spread in the wells of a 96 -well microtiter plate (25000 cells for A2780 per well per 100 μL) and left standing at 37 °C in the chamber filled with CO2 (5%) for overnight. Stock solutions of prodrugs of different concentra tions (1 μL, solvent dmso, final concentrations in wells were 2, 5, 10, 30, 50 μM) were added to the wells and incubated for specific periods of time. Four experiments were conducted for each concentration of the prodrug. Finally, 3-(4,5-dimethylthiazol-2-yl)-2,5-diphenyltetrazolium bromide (MTT, 20 μL of the solution prepared by dissolving MTT (5 mg) in DPBS buffer (1 mL)) was added to each well, incubated for 3 h, treated with sodium dodecyl sulfate (SDS) solution (90 μL, 10% solution in 0.01 M aqueous HC l), and incubated overnight. Afterward, the intensity of the absorbance at 590 nm was measured.
MTT is converted in live cells to blue dye with the absorbance maximum λ max at 590 nm.
The absorbance at 690 nm was taken as a baseline value. The baseline corrected absorbance at 590 nm (A(590 nm) − A(690 nm)) was applied to calculate the relative number of viable cells. IC50 values were determined by fitting the experimental data expressing the number of viable cells (%, Y-axis) versus drug concentration (μM, X-axis) with a line curve and the X-axis value corresponding to 50% viability was considered as IC50 value according to the line curve (Figure S50, Table S2). […]

[5] = Solubility in RPMI 1640 medium, precipitation seen by bright field optical microscopy; conditions: DMSO 1%; for Solubility: 48 h incubation in RPMI 1640, FBS 5%, first signs of precipitation; for first signs of precipitation: immediately after dilution in RPMI 1640, FBS 5%
Procedure: The latter medium was selected, since we used it for the cellular assays. […] Then we monitored the formation of (not detectable in the previous experiment) aggregated species in prodrug solutions that appeared transparent (concentrations < 50 µM) by using dynamic light scattering. […]
Solubility of drugs in aqueous buffers
Observing prodrug precipitation by using bright field optical microscopy […]
glutamine (1 %), and penicillin/streptomycin (1 %) was filled into 96-well microtiter plates (100 µL for each well) and compounds in DMSO stock solution (1 µL) were added. Each well was monitored by using bright field optical microscopy both immediately after […]

A2780 cells [6] = test: Mitochondrial ROS (MitoSOX, flow cytometry), A2780; assay type: cell-based, human
Procedure: Monitoring mitochondrial ROS (mROS)
A2780 cells were seeded in RPMI 1640 medium containing 5% FBS, 1% L-glutamine and 1% penicillin/streptomycin in a 96-well microtiter plate (total volume 0.1 mL) at a density of 250 cells/µL one day before the experiment. On the day of the experiment, the cells were washed with DPBS buffer and a fresh portion of RPMI 1640 medium containing 5% FBS, 1% L-glutamine and 1% penicillin/streptomycin (100 µL) was added followed by addition of compounds (1 μL of stock solutions in DMSO, final concentration of the prodrugs was 5, 10 μM and 30 μM) or carrier only (DMSO, 1 µL, final concentration 1 %, v/v) and incubation for 1 or 2 h in the dark chamber filled with CO 2 (5%) at 37 °C. After that, the cells were washed twice with DPBS buffer and the medium was replaced with HBSS (Hanks' Balanced Salt solution, 50 μL) containing MitoSOX (Red Mitochondrial Superoxide Indicator, Thermo-Fisher, Catalog number M36008, final concentration 5 µM obtained by adding 0.5 µ L of the 0.5 mM stock solution of MitoSOX in DMSO to the HBSS ) […]
(1 picture or pasted object on this page, not shown here) […]
and the cells were incubated in the dark chamber filled with CO2 (5%) at 37 °C for 20 min.
Next, the cells were detached from the culture dish using trypsin/EDTA (0.025%/0.01%, v/v, 50 µL). The cells were re-suspended in RPMI 1640 medium containing 5% FBS, 1% L-glutamine and 1% penicillin/streptomycin (100 µL). Finally, the fluorescence of live cells (λex = 488 nm, λem = 578 nm) in the suspensions was determined by using flow cytometry

SMILES	cancer cell specificity, primary CLL cells vs MNCs [1]	logP (Hydrolyzed Prodrug) [2]	logP (Prodrug) [2]	ROS Release Efficacy [3]	IC50 (A2780 cells [4]; A2780, 24 h incubation) [µM]	IC50 (A2780 cells [4]; A2780, 48 h incubation) [µM]	IC50 (A2780 cells [4]; A2780, 96 h incubation) [µM]	Solubility [5] [µM]	first signs of precipitation [5] [µM]	ROS-generating activity, fold lower than that of 2a and 2b ([3]; cell free DCFH assay)	cell viability at which the effect is saturated (A2780 cells [4]; A2780, 24 h) [%]	cell viability at which the effect is saturated (A2780 cells [4]; A2780, 48 h) [%]	cell viability at which the effect is saturated (A2780 cells [4]; A2780, 96 h) [%]	mitochondrial ROS (mROS) vs non-treated cells (A2780 cells [6])
CC1(C)OB(c2ccc(COC(=O)N(Cc3cn(CCc4ccccc4)nn3)[c-]3cccc3)cc2)OC1(C)C.[Fe+2].c1cc[cH-]c1 [2b]	some specificity towards primary CLL cells	3.10 ± 0.12	5.37 ± 0.10	0.76 ± 0.19	24.7 ± 0.6	18.5 ± 1.3	12 ± 3	100	50					
CC1(C)OB(c2ccc(COC(=O)N(Cc3cn(Cc4ccc(Cn5cc(CCc6ccccc6)nn5)cc4)nn3)[c-]3cccc3)cc2)OC1(C)C.[Fe+2].c1cc[cH-]c1 [2d]	some specificity towards primary CLL cells	3.42 ± 0.14	5.56 ± 0.14	0.37 ± 0.13	> 30	> 30	8.3 ± 1.5	30	30	~ 2 fold	70	50	43	
CC1(C)OB(c2ccc(COC(=O)N[c-]3cccc3)cc2)OC1(C)C.[Fe+2].c1cc[cH-]c1 [5a]														substantially weaker
